Non-standard residues stand in square brackets, D forms with d. No end group written: not given here. Nle = CCCC[C@H](N)C(=O)O

The test system of test [1] is reconstructed human pigmented epidermis (RHPE). Kind of test: In vitro repigmentation assay in reconstructed human pigmented epidermis (RHPE), without irradiation. The class given is cell-based. Conditions: A 3.0 ppm. As for the experimental part: (§1) For assessing the repigmentation effect, a reconstructed epidermis model was used, namely, based on adding melanocytes and keratinocytes on a polycarbonate filter (SkinEthic® RHPE, available from the company Episkin).
(§2) Sample tissues were treated with the test products for 6 days (from day1 to day6). After each dosing, the samples were incubated at 37° C., and melanin extraction was performed after 6 days of treatment (at day7). Untreated samples were also included in the assay as controls. An evaluation of cell viability was also performed.
(§3) After treatment, melanin extraction was performed by plunging each sample filter into 800 μl of Solvable® (Perkin Elmer) and heating at 63° C. overnight. The optical density of the supernatants was measured on 300 μl extract at 405 nm using synthetic melanin as reference. 6 samples were used for each treatment and the mean value was calculated.
(§4) For each of the treatments the increase in the amount of melanin generated versus the control (0) was calculated. For analysing a possible synergistic effect, the experimental increase in melanin in the combined treatment (A+B) was compared to the theoretical increase to be expected if a simple additive effect were obtained.
Another in vitro repigmentation assay was performed using the same reconstructed epidermis model and the same procedure as disclosed in Example 1. In this case, the assay was performed without irradiation.
In this example, the same reconstructed epidermis model was used, namely, based on adding melanocytes and keratinocytes on a polycarbonate filter (SkinEthic® RHPE, available from the company Episkin), using the same protocol disclosed in Example 1.

Test [2] shares this test system. Kind of test: In vitro repigmentation assay in reconstructed human pigmented epidermis (RHPE), samples irradiated. The format is cell-based. Conditions: Example 1; irradiated with 150 J/m^2 at 300 W/m^2 on day2, day3, day4; A 3.0 ppm, B 0.4 ppm, A + B 1.5 ppm + 0.2 ppm (7.5:1). The method, then:
as §1, §2, §3
Another analogous assay, with the same treatments, was performed but simultaneously irradiating the samples. In this second assay, the samples were irradiated with 150 J/m^2 at 300 W/m^2 three times on consecutive days (on day2, day3, and day4 of the assay).
as §4

Where [3] appears, read: Example 3, C 0.1 ppm, A + C 1.5 ppm + 0.05 ppm (30:1).
[4] abbreviates: Example 3, C 0.1 ppm, A + C 1.5 ppm + 0.05 ppm (30:1) in culture medium.
Where [5] appears, read: Example 1, without irradiation, 6 days of treatment, extraction at day7, B 0.4 ppm, A + B 1.5 ppm + 0.2 ppm (7.5:1) in culture medium.
The mark [6] stands for this setting: Example 1, without irradiation, 6 days of treatment, B 0.4 ppm, A + B 1.5 ppm + 0.2 ppm (7.5:1).
[7] abbreviates: Example 4, D 1.2 ppm, A + D 1.5 ppm + 0.6 ppm (2.5:1).
The mark [8] stands for this setting: Example 4, D 1.2 ppm, A + D 1.5 ppm + 0.6 ppm (2.5:1) in culture medium.

For His-DPhe-Arg-Trp (H[dF]RW) [C], in test [1] (setting [3]), the “Melanin increase vs. control” value came out at 1.93 µg. The Melanin in test [1] (setting [4]) worked out at 38.45 µg.
In the case of “Nle-Ala-His-DPhe-Arg-Trp (Ac-[Nle]AH[dF]RW) [B]”, the Melanin in test [2] was 38.07 µg; in test [1] (setting [5]) it was 37.31 µg. Besides, the entries for the “Melanin increase vs. control” value in test [2] and in test [1] (setting [6]) were 3.35 µg and 4.21 µg, respectively.
FHWRYPLPLPGQ (MIA inhibitor): the Melanin in test [2] is 36.07 µg; in test [1] (setting [5]) it was 34.39 µg; in test [1] (setting [4]) it was 36.63 µg; in test [1] (setting [8]), 33.34 µg. The “Melanin increase vs. control” value was found to be 1.35 µg in test [2], 1.29 µg in test [1] (setting [6]), 0.11 µg in test [1] (setting [3]) and 1.33 µg in test [1] (setting [7]).
palmitoyl-prolil-proline [D]: in test [1] (setting [7]), the “Melanin increase vs. control” value came out at 0.48 µg. The Melanin in test [1] (setting [8]) amounted to 32.49 µg.
